Here are results for three compounds from US20240066065A1, “PLATELET DERIVATIVES FOR TREATING COAGULOPATHY” (Cellphire, Inc., priority 2019, published 2024).

For one experiment, the system named is Platelet rich plasma. Put plainly: T-TAS flow system (collagen and tissue factor coated channel), rivaroxaban-treated platelet rich plasma. It is filed as cell-based, human. As to conditions: 3 μM rivaroxaban (6.04 without). From the text:
(§1) In the Total Thrombus-formation Analysis System (T-TAS®, FUJIMORI KOGYO CO., LTD), the sample is forced through collagen-coated microchannels using mineral oil. Changes in pressure are used to assess thrombus formation. The Occlusion Start Time is time it takes to reach 10 kPa, and the Occlusion Time=time it takes to each Δ80 kPa using an AR chip (e.g., Zacros Item No, TC0101). According to the manufacturer, an AR chip can be used for analyzing the formation of a mixed white thrombus consisting chiefly of fibrin and activated platelets. It has a flow path (300 μm wide by 50 μm high) coated with collagen and tissue factors and can be used to analyze the clotting function and platelet function. In comparison, a PL chip can be used for analyzing the formation of a platelet thrombus consisting chiefly of activated platelets. A PL chip has a flow path coated with collagen only and can be used to analyze the platelet function.
In a similar experiment, T-TAS® assays were run according to Example 3 with no rivaroxaban, 3 μM rivoroxaban, and 3 μM rivoroxaban and 300×10^3/μL thrombosomes. Platelet rich plasma that was treated with 3 μM rivaroxaban extended occlusion times from 6.04 to 26.01 minutes on the T-TAS® flow system (collagen and tissue factor coated channel).

Another experiment has as its system whole blood. Put plainly: T-TAS thrombus formation under flow, AR chip (collagen+TF), rivaroxaban-anticoagulated whole blood. It is filed as cell-based, human.
Source text: as §1
Rivaroxaban (sometimes herein called Riv) dose-response in whole blood was measured using T-TAS®. An AR chip (Collagen+TF) was used. T-TAS® assays were performed according to Example 3. The donor platelets were used at 307k/μL.
Thrombosomes were prepared consistent with the procedures described in U.S. Pat. No. 8,486,617 (such as, e.g., Examples 1-5) and U.S. Pat. No. 8,097,403 (such as, e.g., Examples 1-3), and rehydrated by addition of sterile water. T-TAS® assays were run according to Example 3 using 3 μM rivaroxaban and different concentrations of thrombosomes (FIG. 10A, Table 8). The ‘No Riv’ vertical line indicates the approximate occlusion time of a sample with no added rivaroxaban.

The test system of a further experiment is heparinized plasma. Put plainly: Thrombin generation assay in heparinized George King Plasma. As to conditions: 2 U/mL heparin, 20 μg/mL protamine sulfate, thrombosomes 5K, 50K, 150K per μL. The format is biochemical, human. Here is the method: Thrombosomes were prepared consistent with the procedures described in U.S. Pat. No. 8,486,617 (such as, e.g., Examples 1-5) and U.S. Pat. No.8,097,403 (such as, e.g., Examples 1-3), and rehydrated by addition of sterile water. aPTT and thrombin generation assays were performed as described in Example 3. […] The dashed line at approximately 70 seconds denotes the limit of abnormal aPTT and the second dashed line is the maximum time measured by the instrument (120 sec). Thrombin generation in heparin treated samples was also measured. […] The dashed line in FIGS. 23B and 23C denotes a typical thrombin peak value seen in this assay for control plasma.
The dashed line at approximately 70 seconds denotes the limit of abnormal aPTT and the second dashed line is the maximum time measured by the instrument (120 sec). Thrombin generation in heparin treated samples was also measured, with and without protamine sulfate. […] The dashed line in FIGS. 24B and 24C enotes a typical thrombin peak value seen in this assay for control plasma.

The subject of another experiment is dabigatran treated PRP. As to conditions: dabigatran 100 ng/mL (18.89 untreated).

Description for dabigatran treated PRP: • (1) Open CAT software; set up instrument; and prepare PRP reagent (including Tissue Factor and some phospholipids), calibrator, and fluoro-buffer according to manufacturer guidelines. • (2) Thaw warfarin or control plasma in 37° C. water bath for 5 minutes. • (3) Rehydrate thrombosomes with cell culture grade water for 10 minutes then dilute with Control Buffer to double target concentration. • (4) For each sample, combine 1:1 volumes of Control Buffer with or without thrombosomes and plasma. • (5) Using a multichannel pipette, add 20 μL of PRP reagent to each well. • (6) Add 80 μL of sample per well.

In the experiment with Platelet rich plasma, `O=C(NC[C@H]1CN(c2ccc(N3CCOCC3=O)cc2)C(=O)O1)c1ccc(Cl)s1` [rivaroxaban] gave an occlusion time of 26.01 min. For the same compound, the results for the AUC in the experiment with whole blood (1 uM rivaroxaban), with whole blood (3 uM rivaroxaban) and in the experiment on whole blood (9 uM rivaroxaban) were 1686 kPa*min, 423 kPa*min and 13.6 kPa*min, respectively. In addition, the “Occ Spd” value in the experiment on whole blood (1 uM rivaroxaban) is reported as 20.9 kPa/min; with whole blood (3 uM rivaroxaban), 28.2 kPa/min. Besides, the “occlusion and thrombus formation” value with whole blood (9 μM rivaroxaban (a pharmacological dose)) was “inhibits occlusion but not all thrombus formation”.
Regarding Protamine Sulfate, in the experiment on heparinized plasma, the “thrombosome-mediated thrombin generation after heparin reversal” value is given as “Restores Thrombosome-Mediated Thrombin Generation”.
As for dabigatran, the Time to peak with dabigatran treated PRP was 34.67 min.
